No end group written: not given here.
Legend:
[1] = target: T1, interaction between FOXM1 and PLK1 (Homo sapiens, UniProt Q08050); assay: Co-IP in 231-Flag-FOXM1-Ind cells; format: cell-based; settings: doxycycline 200 ng/mL 24 h, M1-21 10, 20 µM or TAT-106-126 20, 40, 80 µM for 6 h
T1 construct: expressed in transfected cells; host or cells: MDA-MB-231 stably infected with pLVX-TetOne-Flag-FOXM1b lentivirus (231-Flag-FOXM1-Ind), doxycycline-induced
From the text: Number of repetitions = 3. […] Number of repetitions = 3. […] Number of repetitions = 3. […] GAPDH was used as a loading control.

full-length FOXM1 = target: T2, full-length FOXM1 (Homo sapiens, UniProt Q08050); assay: Biotin-peptide Pulldown with Streptavidin Magnetic Beads; format: binding; settings: biotin-labeled peptide, cell lysates (500 µg) with endogenous or exogenous FOXM1; Western Blotting
T2 sequence (Q08050 703-763 limits assumed): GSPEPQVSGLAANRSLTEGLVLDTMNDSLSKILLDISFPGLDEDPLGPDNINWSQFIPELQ
Method: (§1) SDS-PAGE gel electrophoresis and Coomassie brilliant blue staining were performed to measure peptide stability. […] Cells were collected at different post-treatment time points (0, 1, 2, 4, 8, 16, 24, 36, 48 h). […] D The docking of peptide P22 (106–126) to the FOXM1 C-terminus (PDB ID 6OSW) was created by Rosetta FlexPepDock and PyMOL. Left, the interface of peptide-protein interaction, the peptide was shown in cyan, and the C-terminus of FOXM1 was shown according to its electrostatic potential. Right, hydrogen bonds are formed by residues at the interface of peptide and protein interaction. […] Streptavidin magnetic beads were added to lysates to pull down the biotin-peptides/protein complexes. […] M1-21mut was used as the control.

[2] = target: T3, Flag-GFP-FOXM1(688–748) protein (Homo sapiens, UniProt Q08050); assay: as above; format: binding; settings: biotin-labeled peptide, 293T cell lysates (500 µg) expressing Flag-GFP-FOXM1(688–748); Western Blotting
T3 construct: expressing exogenous Flag-GFP-FOXM1(688-748) protein; expressed in transfected cells; host or cells: 293T (HEK-293T) cell lysates
T3 sequence (Q08050 688-748 isoform Q08050-2): T2 sequence (Q08050 703-763 limits assumed)
From the text: Fig. 1 Screening of TAT-106-126 peptide targeting FOXM1 protein. A An in silico peptide library (P1 to P24, 21-mer) was created from the FOXM1 N-terminus sequence (1-138aa) with a 5 amino acid shift window. The peptide candidates binding to FOXM1 C-terminus (PDB ID 6OSW) were selected by Rosetta FlexPepDock simulation and InterfaceAnalyzer calculation according to docking free energy (dG). B P20, P21, and P22 fused with the cell-penetrating TAT sequence (TAT-96-116, TAT-101-121, and TAT-106-126) were produced by solid-phase peptide synthesis. […] Data points indicated the fraction of GFP-M1(688–748)-bound peptides (ΔFNormal/Amplitude) at different concentrations and curves indicated the calculated fits. The error bars represented the standard error of three independent measurements. […] 48 h Later, trypan blue (0.4%) was added to each well for 3 min and the cells were fixed to 4% paraformaldehyde for imaging. […] The mean IC50 value (µM) for each peptide was obtained from three replicates. D The TAT-106-126 peptide was biotin-labeled and added to 293T cell lysates (500 µg) expressing exogenous Flag-GFP-FOXM1(688–748) protein. The lysates were incubated with Streptavidin magnetic beads to pull down biotin-peptide/protein complexes. Biotin and Flag-GFP-FOXM1(688–748) protein in samples were detected by Western Blotting. […] E Biotin-labeled TAT-106-126 or TAT was added to 293T cell lysates (500 µg). The lysates were incubated with Streptavidin magnetic beads to pull down biotin-peptide/protein complexes. Biotin and endogenous FOXM1 protein were detected by Western Blotting.
A Biotin-labeled peptides TAT-96-116, TAT-101-121, and TAT-106-126 were added to 293T cell lysates (500 µg) expressing exogenous Flag-GFP-FOXM1(688-748) protein (or Flag-GFP control lysates). The lysates were incubated with Streptavidin magnetic beads to pull down biotin-peptide/protein complexes. Biotin and Flag-GFP-FOXM1(688-748) protein in samples were detected by Western Blotting. […] Biotin and exogenous FOXM1 protein were detected by Western Blotting.

MDA-MB-231 cells = assay: Half-life of biotin-labeled peptides in living cells (Western blotting); format: in vitro ADME, human; settings: biotin-labeled peptide 20 µM for 2 h, then fresh medium, cells collected 0-48 h, β-actin loading control
Method: as §1

T1 sequence (Q08050 1-748 isoform Q08050-2): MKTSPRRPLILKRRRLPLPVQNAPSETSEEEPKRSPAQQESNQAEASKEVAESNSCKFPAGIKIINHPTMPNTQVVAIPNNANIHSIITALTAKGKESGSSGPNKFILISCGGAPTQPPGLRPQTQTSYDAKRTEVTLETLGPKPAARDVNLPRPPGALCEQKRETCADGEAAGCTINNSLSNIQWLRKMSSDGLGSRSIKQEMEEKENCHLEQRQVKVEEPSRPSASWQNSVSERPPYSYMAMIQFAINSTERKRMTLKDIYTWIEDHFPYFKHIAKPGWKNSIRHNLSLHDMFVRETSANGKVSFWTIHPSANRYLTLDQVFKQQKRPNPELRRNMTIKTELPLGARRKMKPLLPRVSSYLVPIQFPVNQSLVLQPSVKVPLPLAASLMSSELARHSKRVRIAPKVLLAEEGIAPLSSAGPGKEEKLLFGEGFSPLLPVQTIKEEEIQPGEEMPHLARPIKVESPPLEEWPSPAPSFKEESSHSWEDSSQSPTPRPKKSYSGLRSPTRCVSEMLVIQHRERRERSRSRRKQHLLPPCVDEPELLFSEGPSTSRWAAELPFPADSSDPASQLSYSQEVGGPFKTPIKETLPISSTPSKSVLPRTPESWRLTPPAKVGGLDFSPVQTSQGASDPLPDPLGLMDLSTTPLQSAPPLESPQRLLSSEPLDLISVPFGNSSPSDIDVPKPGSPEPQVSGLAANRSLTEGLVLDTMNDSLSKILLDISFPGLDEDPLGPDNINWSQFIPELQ

Row | Sequence | interaction between FOXM1 and PLK1 (Co-IP) [1] | binding to full-length FOXM1 in Pulldown (full-length FOXM1) | binding to FOXM1 C-terminus in Pulldown [2] | Half-life in living MDA-MB-231 cells (MDA-MB-231 cells) [h]
1 | GRKKRRQRRRFILISCGGAPTQPPGLRPQTQ [TAT-106-126] | comparable activity to M1-21 | capable of binding | capable of binding | 6.2
2 | GRKKRRQRRRKESGSSGPNKFILISCGGAPT [TAT-96-116] |  | neither of them effectively bound | interacted | 
3 | GRKKRRQRRRSGPNKFILISCGGAPTQPPGL [TAT-101-121] |  | neither of them effectively bound | interacted | 
